Experimental data published in US20230416330A1, “Optimized GIP Peptide Analogues” (Antag Therapeutics ApS, priority 2019, published 2023).
Starred links: 1 amine or outer side, 2 acyl side, 3 side chain; linkers in the order of their positions; H or OH if unused. Non-standard residues stand in square brackets, D forms with d. Residues, ends and D or L forms follow the SMILES beside them. Groups on a side chain read outwards from the residue. *: point of attachment. C16 diacid = O=C(O)CCCCCCCCCCCCCCC(=O)*; Glutaryl = O=C(CCCC(=O)[*:2])[*:1]; Aib = CC(C)(N)C(=O)O

What was measured:
[1] = Solubility by visual inspection of peptide solutions; assay type: physicochemical
Experimental: (§1) Peptides were either dissolved in sodium phosphate buffer (50 mM, pH 7.4, filtered) or dissolved in ultrapure (MilliQ) water (adjusted to pH 7.4 with NaOH, filtered) (see Table 3). All peptide samples were prepared to a concentration of 1, 5, 7.5 or 15 mg/ml. All samples, with the exception of reference peptides GIP(3-30), AT158, and AT482 dissolved readily and produced clear and colorless solutions with gentle mixing. Peptide samples were subsequently filtered through 0.22 μm nylon filters (Q-Max® RR syringe filter, 13 mm, Frisenette, DK) to produce particle-free solutions. All samples were added to a 96-well plate reader for the ThT assay at t=0.
Clear visual appearance may be taken as an indicator of the immediate solubility of the peptide. […] Thus, A13Aib and/or N24E substitutions appear to increase solubility.

[2] = Physical stability: fibril formation in Thioflavin T (ThT) assay with agitation; assay type: physicochemical; conditions: 25° C., agitation
Experimental: Continuous measurement of the fluorescence emission at 486 nm can be used as a measure of fibrillation behavior of peptides and proteins. The time until onset of fibrillation or fibrillation lag time is estimated here by defining the lag time (Tlag) as the point in time where the signal relative to the pre-transition baseline has reached 10% of the post-transition baseline.
50 mM sodium phosphate buffer for dissolving some samples was prepared in ultrapure water (Milli-Q® Reference A+ System, Merck) with a resistivity of 18.2 MΩ·cm. The buffer was adjusted to pH 7.4 and filtered.
The ultrapure water (MilliQ) for dissolving some samples was adjusted to pH 7.4 with NaOH and filtered prior to sample preparation.
as §1
For each sample, […] ThT (1 mM) was added to 1.2 mL peptide solution. From this sample mixture, an amount of 200 uL/well was pipetted into four or five wells (n=4 or 5). Blank samples (buffer+ThT) were also included. One 3 mm silica bead was added to each well containing samples and the plate was subjected to orbital rotation at 300 rpm to agitate and stress the samples. The temperature was kept at 25° C. throughout the measurement.

Compound	Visual appearance ([1]; 1 mg/ml, TFA, Phosphate (7.4))	Visual appearance ([1]; 7.5 mg/ml, Na, MilliQ (8))	Visual appearance ([1]; 15 mg/ml, Na, MilliQ (8))	Avr lag time (h) ([2]; 1 mg/ml, TFA, Phosphate (7.4))	Avr lag time (h) ([2]; 7.5 mg/ml, Na, MilliQ (8))	Avr lag time (h) ([2]; 15 mg/ml, Na, MilliQ (8))	Avr lag time ([2]; 1 mg/ml, TFA, Phosphate (7.4)) [h]
CC[C@H](C)[C@H](NC(=O)[C@H](CCCCN)NC(=O)[C@H](CCC(=O)O)NC(=O)[C@H](CC(C)C)NC(=O)C(C)(C)NC(=O)[C@@H](NC(=O)[C@H](CO)NC(=O)[C@H](Cc1ccc(O)cc1)NC(=O)[C@H](CCC(=O)O)NC(=O)[C@H](CO)NC(=O)[C@@H](NC(=O)[C@H](Cc1ccccc1)NC(=O)[C@@H](NC(=O)CNC(=O)CCCC(=O)O)[C@@H](C)O)[C@@H](C)CC)[C@@H](C)CC)C(=O)N[C@@H](CCCCNC(=O)CCCCCCCCCCCCCCC(=O)O)C(=O)N[C@@H](CCC(N)=O)C(=O)N[C@@H](CCC(N)=O)C(=O)N[C@@H](CCC(=O)O)C(=O)N[C@@H](Cc1ccccc1)C(=O)N[C@H](C(=O)N[C@@H](CCC(=O)O)C(=O)N[C@@H](Cc1c[nH]c2ccccc12)C(=O)N[C@@H](CC(C)C)C(=O)N[C@@H](CC(C)C)C(=O)N[C@@H](C)C(=O)N[C@@H](CCC(N)=O)C(=O)N[C@@H](CCCCN)C(=O)N1CCC[C@H]1C(=O)N[C@@H](CO)C(=O)N[C@@H](CO)C(=O)NCC(=O)N[C@@H](C)C(=O)N1CCC[C@H]1C(=O)N1CCC[C@H]1C(=O)N1CCC[C@H]1C(=O)N[C@@H](CO)C(=O)O)C(C)C [AT717] (Glutaryl-GTFISEYSI[Aib]LEKIK(C16 diacid)QQEFVEWLLAQKPSSGAPPPS-OH)	Clear	Clear	Clear	fnd (Fnd = fibrils not detected within experiment time (96 hours) with agitation.)	fnd (Fnd = fibrils not detected within experiment time (96 hours) with agitation.)	fnd (Fnd = fibrils not detected within experiment time (96 hours) with agitation.)	–
CC[C@H](C)[C@H](NC(=O)[C@H](CO)NC(=O)[C@H](Cc1ccc(O)cc1)NC(=O)[C@H](CC(=O)O)NC(=O)[C@H](CO)NC(=O)[C@@H](NC(=O)[C@H](Cc1ccccc1)NC(=O)[C@@H](NC(=O)CNC(=O)[C@@H](N)CCC(=O)O)[C@@H](C)O)[C@@H](C)CC)C(=O)N[C@@H](C)C(=O)N[C@@H](CCSC)C(=O)N[C@@H](CC(=O)O)C(=O)N[C@@H](CCCCN)C(=O)N[C@H](C(=O)N[C@@H](CCCCNC(=O)CCCCCCCCCCCCCCC(=O)O)C(=O)N[C@@H](CCC(N)=O)C(=O)N[C@@H](CCC(N)=O)C(=O)N[C@@H](CC(=O)O)C(=O)N[C@@H](Cc1ccccc1)C(=O)N[C@H](C(=O)N[C@@H](CC(N)=O)C(=O)N[C@@H](Cc1c[nH]c2ccccc12)C(=O)N[C@@H](CC(C)C)C(=O)N[C@@H](CC(C)C)C(=O)N[C@@H](C)C(=O)N[C@@H](CCC(N)=O)C(=O)N[C@@H](CCCCN)C(=O)O)C(C)C)[C@@H](C)CC [AT719] (H-EGTFISDYSIAMDKIK(C16 diacid)QQDFVNWLLAQK-OH; N-terminus assumed)	Clear	–	–	–	–	–	<8
CC[C@H](C)[C@H](NC(=O)[C@H](CCCCN)NC(=O)[C@H](CCC(=O)O)NC(=O)[C@H](CC(C)C)NC(=O)C(C)(C)NC(=O)[C@@H](NC(=O)[C@H](CO)NC(=O)[C@H](Cc1ccc(O)cc1)NC(=O)[C@H](CCC(=O)O)NC(=O)[C@H](CO)NC(=O)[C@@H](NC(=O)[C@H](Cc1ccccc1)NC(=O)[C@@H](NC(=O)CNC(=O)[C@@H](N)CCC(=O)O)[C@@H](C)O)[C@@H](C)CC)[C@@H](C)CC)C(=O)N[C@@H](CCCCNC(=O)[C@H](C)NC(=O)[C@H](CCC(=O)O)NC(=O)[C@H](CC(C)C)NC(=O)[C@H](C)NC(=O)CCCCCCCCCCCCCCC(=O)O)C(=O)N[C@@H](CCC(N)=O)C(=O)N[C@@H](CCC(N)=O)C(=O)N[C@@H](CCC(=O)O)C(=O)N[C@@H](Cc1ccccc1)C(=O)N[C@H](C(=O)N[C@@H](CCC(=O)O)C(=O)N[C@@H](Cc1c[nH]c2ccccc12)C(=O)N[C@@H](CC(C)C)C(=O)N[C@@H](CC(C)C)C(=O)N[C@@H](C)C(=O)N[C@@H](CCC(N)=O)C(=O)N[C@@H](CCCCN)C(=O)N1CCC[C@H]1C(=O)N[C@@H](CO)C(=O)N[C@@H](CO)C(=O)NCC(=O)N[C@@H](C)C(=O)N1CCC[C@H]1C(=O)N1CCC[C@H]1C(=O)N1CCC[C@H]1C(=O)N[C@@H](CO)C(=O)O)C(C)C [AT725] (H-EGTFISEYSI[Aib]LEKIK([Ala-Glu-Leu-Ala-C16 diacid])QQEFVEWLLAQKPSSGAPPPS-OH; N-terminus assumed)	Clear	–	–	fnd (Fnd = fibrils not detected within experiment time (96 hours) with agitation.)	–	–	–
CC[C@H](C)[C@H](NC(=O)[C@H](CO)NC(=O)[C@H](Cc1ccc(O)cc1)NC(=O)[C@H](CC(=O)O)NC(=O)[C@H](CO)NC(=O)[C@@H](NC(=O)[C@H](Cc1ccccc1)NC(=O)[C@@H](NC(=O)CNC(=O)[C@@H](N)CCC(=O)O)[C@@H](C)O)[C@@H](C)CC)C(=O)N[C@@H](C)C(=O)N[C@@H](CCSC)C(=O)N[C@@H](CC(=O)O)C(=O)N[C@@H](CCCCN)C(=O)N[C@@H](CCCCNC(=O)CCCCCCCCCCCCCCC(=O)O)C(=O)N[C@@H](Cc1c[nH]cn1)C(=O)N[C@@H](CCC(N)=O)C(=O)N[C@@H](CCC(N)=O)C(=O)N[C@@H](CC(=O)O)C(=O)N[C@@H](Cc1ccccc1)C(=O)N[C@H](C(=O)N[C@@H](CCC(=O)O)C(=O)N[C@@H](Cc1c[nH]c2ccccc12)C(=O)N[C@@H](CC(C)C)C(=O)N[C@@H](CC(C)C)C(=O)N[C@@H](C)C(=O)N[C@@H](CCC(N)=O)C(=O)N[C@@H](CCCCN)C(=O)N1CCC[C@H]1C(=O)N[C@@H](CO)C(=O)N[C@@H](CO)C(=O)NCC(=O)N[C@@H](C)C(=O)N1CCC[C@H]1C(=O)N1CCC[C@H]1C(=O)N1CCC[C@H]1C(=O)N[C@@H](CO)C(=O)O)C(C)C [AT742] (H-EGTFISDYSIAMDKK(C16 diacid)HQQDFVEWLLAQKPSSGAPPPS-OH; N-terminus assumed)	Clear	–	–	fnd (Fnd = fibrils not detected within experiment time (96 hours) with agitation.)	–	–	–
CC[C@H](C)[C@H](NC(=O)[C@H](CO)NC(=O)[C@H](Cc1ccc(O)cc1)NC(=O)[C@H](CC(=O)O)NC(=O)[C@H](CO)NC(=O)[C@@H](NC(=O)[C@H](Cc1ccccc1)NC(=O)[C@@H](NC(=O)CNC(=O)[C@@H](N)CCC(=O)O)[C@@H](C)O)[C@@H](C)CC)C(=O)N[C@@H](C)C(=O)N[C@@H](CCSC)C(=O)N[C@@H](CC(=O)O)C(=O)N[C@@H](CCCCN)C(=O)N[C@H](C(=O)N[C@@H](Cc1c[nH]cn1)C(=O)N[C@@H](CCC(N)=O)C(=O)N[C@@H](CCC(N)=O)C(=O)N[C@@H](CC(=O)O)C(=O)N[C@@H](Cc1ccccc1)C(=O)N[C@H](C(=O)N[C@@H](CCC(=O)O)C(=O)N[C@@H](Cc1c[nH]c2ccccc12)C(=O)N[C@@H](CC(C)C)C(=O)N[C@@H](CC(C)C)C(=O)N[C@@H](C)C(=O)N[C@@H](CCC(N)=O)C(=O)N[C@@H](CCCCN)C(=O)N1CCC[C@H]1C(=O)N[C@@H](CO)C(=O)N[C@@H](CO)C(=O)NCC(=O)N[C@@H](C)C(=O)N1CCC[C@H]1C(=O)N1CCC[C@H]1C(=O)N1CCC[C@H]1C(=O)N[C@@H](CO)C(=O)N[C@@H](CCCCNC(=O)CCCCCCCCCCCCCCC(=O)O)C(=O)O)C(C)C)[C@@H](C)CC [AT744] (H-EGTFISDYSIAMDKIHQQDFVEWLLAQKPSSGAPPPSK(C16 diacid)-OH; N-terminus assumed)	Clear	–	–	fnd (Fnd = fibrils not detected within experiment time (96 hours) with agitation.)	–	–	–
